# According to patent US20140171357A1, “VANCOMYCIN DERIVATIVES” (Seachald Pharmaceuticals, Inc., priority 2011, published 2014):
# Assays:
# S. pneumoniae (22) = assay: MIC broth microdilution, S. pneumoniae; details: for MIC 50% / MIC 90%: S. pneumoniae (22), MHB + lysed horse blood
# [1] = system: β-hemolytic streptococci (23); assay: MIC broth microdilution, β-hemolytic streptococci; details: for fold more potent than teicoplanin and daptomycin / fold more potent than vancomycin: β-hemolytic streptococci; for MIC 50% / MIC 90%: β-hemolytic streptococci (23), MHB + lysed horse blood
# [2] = system: vancomycin-susceptible E. faecalis (23); assay: MIC broth microdilution, vancomycin-susceptible E. faecalis; details: E. faecalis, vancomycin-susceptible (23)
# [3] = system: methicillin-susceptible S. aureus (MSSA, 22); assay: MIC broth microdilution, MSSA; details: MSSA (22)
# [4] = system: VanB vancomycin-resistant E. faecium (10); assay: MIC broth microdilution, VanB E. faecium; details: E. faecium, VanB (10)
# [5] = system: heterogeneous VISA (hVISA, 10); assay: MIC broth microdilution, hVISA
# [6] = system: vancomycin-intermediate S. aureus (VISA, 5); assay: MIC broth microdilution, VISA
# [7] = system: Staphylococcus epidermidis (43 strains); assay: MIC broth microdilution, S. epidermidis; details: S. epidermidis (43)
# [8] = system: vancomycin-resistant S. aureus (VRSA, 6); assay: MIC broth microdilution, VRSA
# [9] = system: VanA vancomycin-resistant E. faecalis (11); assay: MIC broth microdilution, VanA E. faecalis; details: for MIC 50% / MIC 90%: E. faecalis, VanA (11)
# [10] = system: VanA vancomycin-resistant E. faecium (10); assay: MIC broth microdilution, VanA E. faecium; details: E. faecium, VanA (10)
# VanC enterococci (22) = assay: MIC broth microdilution, vanC-carrying enterococci; details: VanC enterococci (22)
# S. aureus ATCC 25923 = assay: Neutropenic murine thigh infection model; details: for AUCc-t (AUC difference between control and treated animals): 24 h time kill
# [11] = system: VanB vancomycin-resistant E. faecalis (12); assay: MIC broth microdilution, VanB E. faecalis; details: E. faecalis, VanB (12)
# [12] = system: Staphylococcus aureus (65 strains); assay: MIC broth microdilution, S. aureus all isolates; details: S. aureus (65), all resistance subsets
# [13] = system: vancomycin-susceptible E. faecium (21); assay: MIC broth microdilution, vancomycin-susceptible E. faecium; details: E. faecium, vancomycin-susceptible (21)
# [14] = system: methicillin-resistant S. aureus (MRSA, 22); assay: MIC broth microdilution, MRSA; details: MRSA (22)
# [15] = 1 mg/kg single intraperitoneal dose
# [16] = 4 mg/kg single intraperitoneal dose
# [17] = 16 mg/kg single intraperitoneal dose
smiles,measurement,setting,value
CNC(CC(C)C)C(=O)NC1C(=O)NC(CC(N)=O)C(=O)NC2C(=O)NC3C(=O)NC(C(=O)NC(C(=O)NCCOCCOCCN(C)C)c4cc(O)cc(O)c4-c4cc3ccc4O)C(O)c3ccc(c(Cl)c3)Oc3cc2cc(c3OC2OC(CO)C(O)C(O)C2OC2CC(C)(NCc3ccc(-c4ccc(Cl)cc4)cc3)C(O)C(C)O2)Oc2ccc(cc2Cl)C1O (stereo not drawn) [Compound 10],MIC 50%,S. pneumoniae (22),0.03 mg/L
same,MIC 90%,S. pneumoniae (22),0.06 mg/L
same,fold more potent than teicoplanin and daptomycin,[1],two- to four
same,fold more potent than vancomycin,[1],four- to eight
same,MIC 50%,[1],0.03 mg/L
same,MIC 90%,[1],0.12 mg/L
same,MIC 50%,[2],0.12 mg/L
same,MIC 90%,[2],0.12 mg/L
same,MIC 50%,[3],0.06 mg/L
same,MIC 90%,[3],0.06 mg/L
same,MIC 50%,[4],0.06 mg/L
same,MIC 90%,[4],0.06 mg/L
same,MIC 50%,[5],0.12 mg/L
same,MIC 90%,[5],0.12 mg/L
same,MIC 50%,[6],0.25 mg/L
same,MIC 50%,[7],0.03 mg/L
same,MIC 90%,[7],0.06 mg/L
same,MIC 50%,[8],4 mg/L
same,MIC 50%,[9],4 mg/L
same,MIC 90%,[9],8 mg/L
same,MIC 50%,[10],1 mg/L
same,MIC 90%,[10],2 mg/L
same,MIC 50%,VanC enterococci (22),0.12 mg/L
same,MIC 90%,VanC enterococci (22),0.25 mg/L
same,Max Kill (maximum decrease from initial infection level),S. aureus ATCC 25923; [15],0.43 Log10 CFU/thigh
same,AUCc-t (AUC difference between control and treated animals),S. aureus ATCC 25923; [15],10.7 (Log10 CFU/thigh)/hr
same,Max Kill (maximum decrease from initial infection level),S. aureus ATCC 25923; [16],−0.06 Log10 CFU/thigh
same,AUCc-t (AUC difference between control and treated animals),S. aureus ATCC 25923; [16],22.4 (Log10 CFU/thigh)/hr
same,Max Kill (maximum decrease from initial infection level),S. aureus ATCC 25923; [17],−0.02 Log10 CFU/thigh
same,AUCc-t (AUC difference between control and treated animals),S. aureus ATCC 25923; [17],25.6 (Log10 CFU/thigh)/hr
same,MIC 50%,[11],0.12 mg/L
same,MIC 90%,[11],0.25 mg/L
same,MIC 50%,[12],0.06 mg/L
same,MIC 90%,[12],0.25 mg/L
same,MIC 50%,[13],0.06 mg/L
same,MIC 90%,[13],0.06 mg/L
same,MIC 50%,[14],0.06 mg/L
same,MIC 90%,[14],0.12 mg/L
CNC(CC(C)C)C(=O)NC1C(=O)NC(CC(N)=O)C(=O)NC2C(=O)NC3C(=O)NC(C(=O)NC(C(=O)NCCOCCOCCN)c4cc(O)cc(O)c4-c4cc3ccc4O)C(O)c3ccc(c(Cl)c3)Oc3cc2cc(c3OC2OC(CO)C(O)C(O)C2OC2CC(C)(NCc3ccc(OCc4ccc(Cl)c(Cl)c4)cc3)C(O)C(C)O2)Oc2ccc(cc2Cl)C1O (stereo not drawn) [Compound 27],MIC 50%,S. pneumoniae (22),0.03 mg/L
same,MIC 90%,S. pneumoniae (22),0.06 mg/L
same,MIC 50%,[1],0.06 mg/L
same,MIC 90%,[1],0.12 mg/L
same,MIC 50%,[2],0.12 mg/L
same,MIC 90%,[2],0.12 mg/L
same,MIC 50%,[3],0.06 mg/L
same,MIC 90%,[3],0.06 mg/L
same,MIC 50%,[4],0.03 mg/L
same,MIC 90%,[4],0.03 mg/L
same,MIC 50%,[5],0.06 mg/L
same,MIC 90%,[5],0.06 mg/L
same,MIC 50%,[6],0.12 mg/L
same,MIC 50%,[7],0.03 mg/L
same,MIC 90%,[7],0.03 mg/L
same,MIC 50%,[8],2 mg/L
same,MIC 50%,[9],2 mg/L
same,MIC 90%,[9],2 mg/L
same,fold higher MIC50/MIC90 against VanA-type E. faecalis compared with wildtype (susceptible) strains,[9]; VanA vs wildtype E. faecalis,16 fold
same,concentration inhibiting all strains,[9]; VanA-type E. faecalis,≤ 2 µg/mL
same,MIC 50%,[10],0.5 mg/L
same,MIC 90%,[10],1 mg/L
same,MIC 50%,VanC enterococci (22),0.06 mg/L
same,MIC 90%,VanC enterococci (22),0.25 mg/L
same,Max Kill (maximum decrease from initial infection level),S. aureus ATCC 25923; [15],0.45 Log10 CFU/thigh
same,AUCc-t (AUC difference between control and treated animals),S. aureus ATCC 25923; [15],19.8 (Log10 CFU/thigh)/hr
same,Max Kill (maximum decrease from initial infection level),S. aureus ATCC 25923; [16],−0.008 Log10 CFU/thigh
same,AUCc-t (AUC difference between control and treated animals),S. aureus ATCC 25923; [16],18.8 (Log10 CFU/thigh)/hr
same,Max Kill (maximum decrease from initial infection level),S. aureus ATCC 25923; [17],−0.35 Log10 CFU/thigh
same,AUCc-t (AUC difference between control and treated animals),S. aureus ATCC 25923; [17],36.9 (Log10 CFU/thigh)/hr
same,MIC 50%,[11],0.12 mg/L
same,MIC 90%,[11],0.12 mg/L
same,MIC 50%,[12],0.06 mg/L
same,MIC 90%,[12],0.25 mg/L
same,MIC 50%,[13],0.03 mg/L
same,MIC 90%,[13],0.06 mg/L
same,MIC 50%,[14],0.06 mg/L
same,MIC 90%,[14],0.06 mg/L
CCCCCCCCCCNCCNC1(C)CC(OC2C(Oc3c4cc5cc3Oc3ccc(cc3Cl)C(O)C3NC(=O)C(NC(=O)C5NC(=O)C(CC(N)=O)NC(=O)C(NC(=O)C(CC(C)C)NC)C(O)c5ccc(c(Cl)c5)O4)c4ccc(O)c(c4)-c4c(cc(O)c(CNCCOCCOCCN)c4O)C(C(=O)O)NC3=O)OC(CO)C(O)C2O)OC(C)C1O (stereo not drawn) [Compound 3],fold more potent than linezolid,S. pneumoniae (22); S. pneumoniae,32 fold
same,MIC 50%,S. pneumoniae (22),0.015 mg/L
same,MIC 90%,S. pneumoniae (22),0.03 mg/L
same,fold more potent than teicoplanin and daptomycin,[1],two- to four
same,fold more potent than vancomycin,[1],four- to eight
same,MIC 50%,[1],0.03 mg/L
same,MIC 90%,[1],0.12 mg/L
same,MIC 50%,[2],0.06 mg/L
same,MIC 90%,[2],0.06 mg/L
same,MIC 50%,[3],0.03 mg/L
same,MIC 90%,[3],0.06 mg/L
same,MIC 50%,[4],0.015 mg/L
same,MIC 90%,[4],0.015 mg/L
same,MIC 50%,[5],0.06 mg/L
same,MIC 90%,[5],0.06 mg/L
same,MIC 50%,[6],0.12 mg/L
same,MIC 50%,[7],0.03 mg/L
same,MIC 90%,[7],0.03 mg/L
same,MIC 50%,[8],1 mg/L
same,MIC 50%,[9],4 mg/L
same,MIC 90%,[9],8 mg/L
same,MIC 50%,[10],2 mg/L
same,MIC 90%,[10],4 mg/L
same,MIC 50%,VanC enterococci (22),0.06 mg/L
same,MIC 90%,VanC enterococci (22),0.12 mg/L
same,Max Kill (maximum decrease from initial infection level),S. aureus ATCC 25923; [15],−0.2 Log10 CFU/thigh
same,AUCc-t (AUC difference between control and treated animals),S. aureus ATCC 25923; [15],28.4 (Log10 CFU/thigh)/hr
same,Max Kill (maximum decrease from initial infection level),S. aureus ATCC 25923; [16],−0.41 Log10 CFU/thigh
same,AUCc-t (AUC difference between control and treated animals),S. aureus ATCC 25923; [16],32.3 (Log10 CFU/thigh)/hr
same,Max Kill (maximum decrease from initial infection level),S. aureus ATCC 25923; [17],−1.08 Log10 CFU/thigh
same,AUCc-t (AUC difference between control and treated animals),S. aureus ATCC 25923; [17],52.9 (Log10 CFU/thigh)/hr
same,organism reduction across doses,"S. aureus ATCC 25923; 1, 4 and 16 mg/kg intraperitoneal",organism reduction over the entire dose range
same,in vivo efficacy against S. aureus (in words),S. aureus ATCC 25923; neutropenic soft tissue infection model,bactericidal characteristics and prolonged in vivo activity
same,MIC 50%,[11],0.06 mg/L
same,MIC 90%,[11],0.12 mg/L
same,MIC 50%,[12],0.03 mg/L
same,MIC 90%,[12],0.12 mg/L
same,MIC 50%,[13],0.015 mg/L
same,MIC 90%,[13],0.03 mg/L
same,MIC 50%,[14],0.03 mg/L
same,MIC 90%,[14],0.06 mg/L
CNC(CC(C)C)C(=O)NC1C(=O)NC(CC(N)=O)C(=O)NC2C(=O)NC3C(=O)NC(C(=O)NC(C(=O)O)c4cc(O)c(CNCCOCCOCCN(C)C)c(O)c4-c4cc3ccc4O)C(O)c3ccc(c(Cl)c3)Oc3cc2cc(c3OC2OC(CO)C(O)C(O)C2OC2CC(C)(NCc3ccc(-c4ccc(Cl)cc4)cc3)C(O)C(C)O2)Oc2ccc(cc2Cl)C1O (stereo not drawn) [Compound 12],MIC 50%,S. pneumoniae (22),0.06 mg/L
same,MIC 90%,S. pneumoniae (22),0.06 mg/L
same,MIC 50%,[1],0.06 mg/L
same,MIC 90%,[1],0.06 mg/L
same,MIC 50%,[2],0.25 mg/L
same,MIC 90%,[2],0.25 mg/L
same,MIC 50%,[3],0.12 mg/L
same,MIC 90%,[3],0.12 mg/L
same,MIC 50%,[4],0.12 mg/L
same,MIC 90%,[4],0.12 mg/L
same,MIC 50%,[5],0.12 mg/L
same,MIC 90%,[5],0.12 mg/L
same,MIC 50%,[6],0.25 mg/L
same,MIC 50%,[7],0.06 mg/L
same,MIC 90%,[7],0.12 mg/L
same,MIC 50%,[8],8 mg/L
same,MIC 50%,[9],8 mg/L
same,MIC 90%,[9],16 mg/L
same,MIC 50%,[10],2 mg/L
same,MIC 90%,[10],4 mg/L
same,MIC 50%,VanC enterococci (22),0.25 mg/L
same,MIC 90%,VanC enterococci (22),0.5 mg/L
same,Max Kill (maximum decrease from initial infection level),S. aureus ATCC 25923; [15],1.1 Log10 CFU/thigh
same,AUCc-t (AUC difference between control and treated animals),S. aureus ATCC 25923; [15],6.1 (Log10 CFU/thigh)/hr
same,Max Kill (maximum decrease from initial infection level),S. aureus ATCC 25923; [16],−0.03 Log10 CFU/thigh
same,AUCc-t (AUC difference between control and treated animals),S. aureus ATCC 25923; [16],17.6 (Log10 CFU/thigh)/hr
same,Max Kill (maximum decrease from initial infection level),S. aureus ATCC 25923; [17],0.0005 Log10 CFU/thigh
same,AUCc-t (AUC difference between control and treated animals),S. aureus ATCC 25923; [17],29.3 (Log10 CFU/thigh)/hr
same,MIC 50%,[11],0.25 mg/L
same,MIC 90%,[11],0.25 mg/L
same,MIC 50%,[12],0.12 mg/L
same,MIC 90%,[12],0.5 mg/L
same,MIC 50%,[13],0.12 mg/L
same,MIC 90%,[13],0.12 mg/L
same,MIC 50%,[14],0.12 mg/L
same,MIC 90%,[14],0.12 mg/L
